Source: article PMC6225178 (Molecules : A Journal of Synthetic Chemistry and Natural …, 2018)

Legend:
[1] = Oxidation inhibition of the o/w emulsion (TBARS); details: for Inhibition of Oxidation of o/w Emulsion: determined at 100 µM, oxidation induced with Mohr's salt 5 mM, TBARS, n.a. ^c = no protection detected; for protection against the induced oxidation (in words): o/w emulsion model
Method: The emulsion containing 15 mg of sorbitan sesquioleate, 50 mg of flaxseed oil, and 2 mL of 10 mM Tris-HCl buffer, pH 7.4, was prepared by the method. Determination of the oxidation inhibition of the o/w emulsion was carried out according to a procedure described previously, using 20 μL of the 1:1 (v/v) buffer-diluted emulsion, methanolic solution of each compound (final concentration 100 μM), and ammonium iron(II) sulfate hexahydrate (Mohr′s salt) (5 mM). Thiobarbituric acid reacting substances (TBARS) were determined according to [44].

DPPH assay = details: for IC50: 30 min incubation at room temperature, absorbance 517 nm, n.a. ^c = no protection detected, n.a. ^d = IC50 > 5 mM
Method: The 2,2-diphenyl-1-picrylhydrazyl (DPPH) assay was performed using a previously reported method with a modification. A series of samples consisting of 900 μL of the 0.04 mg/mL methanolic solution of DPPH and different concentrations of the compounds (100 μL) were prepared. Then, the absorbance at 517 nm was measured after a 30 min incubation at room temperature. The half maximal inhibitory concentration (IC50) was used as an indicating measure of the scavenging activity.

[2] = tested on: normal human dermal fibroblast (NHDF) cell line; test: Cell viability assay (MTT) in the NHDF cell line; assay type: cell-based; details: highest concentration
Method: The cytotoxicity test was performed as described in [44] using the NHDF cell line treated with the methanolic solution of the tested compounds to obtain the final concentrations of 12.5, 25, 50, 100, 200, or 250 µM, and incubation for 24 and 48 h. Cell viability was assessed by the MTT method.

SMILES: O=C(O)/C=C/c1ccc(O)c(O)c1 [CA, caffeic acid, reference compound]
- Inhibition of Oxidation of o/w Emulsion [1]: 26.1 ± 2.9
- IC50 (DPPH assay): 32.2 µM

SMILES: CC(=O)/C=C/c1ccccc1O [Compound 6, 4-(2′-hydroxyphenyl)-3(E)-buten-2-one]
- DPPH scavenging ability (in words) (DPPH assay): no scavenging ability

SMILES: COC(=O)/C=C/c1ccc(O)cc1 [Compound 8, 3-(4′-Hydroxyphenyl)-(E)-propenoic acid methyl ester]
- Inhibition of Oxidation of o/w Emulsion [1]: 22.7 ± 6.4
- DPPH scavenging ability (in words) (DPPH assay): no scavenging ability

SMILES: COC(=O)/C=C/c1ccccc1O [Compound 9, 3-(2.′-Hydroxyphenyl)-(E)-propenoic acid methyl ester]
- Inhibition of Oxidation of o/w Emulsion [1]: 2.6 ± 1.5
- DPPH scavenging ability (in words) (DPPH assay): no scavenging ability

SMILES: COC(=O)/C=C/c1cccc(O)c1 [Compound 10, 3-(3′-Hydroxyphenyl)-(E)-propenoic acid methyl ester]
- Inhibition of Oxidation of o/w Emulsion [1]: 18.4 ± 2.2
- DPPH scavenging ability (in words) (DPPH assay): no scavenging ability

SMILES: COC(=O)/C=C/c1ccc(O)cc1O [Compound 11, 3-(2′,4′-dihydroxyphenyl)-(E)-propenoic acid methyl ester]
- Inhibition of Oxidation of o/w Emulsion [1]: 33.7 ± 6.5
- IC50 (DPPH assay): 1020 µM

SMILES: COC(=O)/C=C/c1ccc(O)c(O)c1O [Compound 12, 3-(2′,3′,4′-trihydroxyphenyl)-(E)-propenoic acid methyl ester]
- antioxidant activity compared with caffeic acid (in words) [1]: higher antioxidant activity than caffeic acid
- Inhibition of Oxidation of o/w Emulsion [1]: 55.5 ± 2
- protection against the induced oxidation (in words) [1]: highest protection against the induced oxidation
- IC50 (DPPH assay): 18.6 µM

SMILES: COC(=O)/C=C/c1cc(O)c(O)cc1O [Compound 13, 3-(2′,4′,5′-trihydroxyphenyl)-(E)-propenoic acid methyl ester]
- antioxidant activity compared with caffeic acid (in words) [1]: higher antioxidant activity than caffeic acid
- Inhibition of Oxidation of o/w Emulsion [1]: 38.6 ± 2.3
- protection against the induced oxidation (in words) [1]: highest protection against the induced oxidation
- IC50 (DPPH assay): 53.3 µM
- effect on viability of NHDF cells after 48 h (in words) [2]: this effect after 48 h was not clearly noticeable

SMILES: COC(=O)/C=C/c1ccc(O)c(OC)c1 [Compound 14, 3-(4′-hydroxy-3-metoxyphenyl)-(E)-propenoic acid methyl ester]
- Inhibition of Oxidation of o/w Emulsion [1]: 14.8 ± 2
- IC50 (DPPH assay): 58.9 µM

SMILES: CC(=O)/C=C/c1cccc(O)c1 [Compound 15, 4-(3′-hydroxyphenyl)-3(E)-buten-2-one]
- DPPH scavenging ability (in words) (DPPH assay): no scavenging ability

SMILES: CC(=O)/C=C/c1ccc(O)cc1 [Compound 16, 4-(4′-hydroxyphenyl)-3(E)-buten-2-one]
- Inhibition of Oxidation of o/w Emulsion [1]: 6.8 ± 4.4
- DPPH scavenging ability (in words) (DPPH assay): no scavenging ability

SMILES: CC(=O)/C=C/c1ccc(O)cc1O [Compound 17, 4-(2′,4′-dihydroxyphenyl)-3(E)-buten-2-one]
- Inhibition of Oxidation of o/w Emulsion [1]: 4.6 ± 1.3
- IC50 (DPPH assay): 688 µM

SMILES: CC(=O)/C=C/c1ccc(O)c(O)c1O [Compound 18, 4-(2′,3′,4′-trihydroxyphenyl)-3(E)-buten-2-one]
- antioxidant activity compared with caffeic acid (in words) [1]: higher antioxidant activity than caffeic acid
- Inhibition of Oxidation of o/w Emulsion [1]: 28.6 ±4
- protection against the induced oxidation (in words) [1]: highest protection against the induced oxidation
- IC50 (DPPH assay): 16.8 µM

SMILES: COc1cc(/C=C/C(C)=O)ccc1O [Compound 20, 4-(3′-methoxy-4′-hydroxyphenyl)-3(E)-buten-2-one]
- Inhibition of Oxidation of o/w Emulsion [1]: 7.9 ± 2.1
- IC50 (DPPH assay): 61.8 µM
- effect on viability of NHDF cells after 48 h (in words) [2]: this effect after 48 h was not clearly noticeable
